Laboratory results taken from patent US7390789B2, “Thio-containing inhibitors of aminopeptidase P, and compositions thereof” (priority 2005, dated 2008).
Read-outs that look alike come from different tables or passages of the source. Blank lines part the entries; values can stand above or below the molecule they belong to.

Columns and labels:
[1] = molecular target: T1, rat membrane aminopeptidase P (Rattus norvegicus, UniProt Q99MA2); experiment: Inhibition of purified rat membrane aminopeptidase P with Arg-Pro-Pro substrate; assay type: biochemical
T1 sequence (Q99MA2 23-650): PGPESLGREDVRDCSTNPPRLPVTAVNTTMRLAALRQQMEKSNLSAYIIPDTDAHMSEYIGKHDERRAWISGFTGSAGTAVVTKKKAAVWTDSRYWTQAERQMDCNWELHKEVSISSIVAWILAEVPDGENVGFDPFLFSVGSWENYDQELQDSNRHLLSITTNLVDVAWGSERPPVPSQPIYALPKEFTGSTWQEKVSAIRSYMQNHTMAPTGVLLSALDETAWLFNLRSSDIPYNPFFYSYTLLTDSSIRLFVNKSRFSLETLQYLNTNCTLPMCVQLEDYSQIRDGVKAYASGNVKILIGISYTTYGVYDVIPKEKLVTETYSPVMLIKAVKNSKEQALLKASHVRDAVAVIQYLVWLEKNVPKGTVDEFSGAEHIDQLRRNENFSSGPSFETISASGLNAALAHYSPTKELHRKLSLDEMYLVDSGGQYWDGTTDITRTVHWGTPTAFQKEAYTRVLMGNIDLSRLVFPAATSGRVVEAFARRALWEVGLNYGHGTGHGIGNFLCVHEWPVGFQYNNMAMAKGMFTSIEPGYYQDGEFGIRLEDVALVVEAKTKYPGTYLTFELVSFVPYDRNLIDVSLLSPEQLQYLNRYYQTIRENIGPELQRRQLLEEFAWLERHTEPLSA
Experimental: The IC50 for each of compounds IV-VIII was determined as the concentration in nmoles/liter (nM) required to inhibit rat membrane aminopeptidase P by 50% using Arg-Pro-Pro (0.5 mM) as the substrate. […] See Maggiora et al.,

aminopeptidase P = details: cited from earlier work
blood pressure = details: rat model of severe hypertension; cited from earlier work
isolated perfused heart = details: cited from earlier work
bradykinin degradation = details: isolated perfused rat heart and lung; cited from earlier work
myocardial infarct size = details: intact rats subjected to regional cardiac ischemia; cited from earlier work
[2] = tested on: bradykinin vasodepressor response; details: cited from earlier work
[3] = purified rat membrane aminopeptidase P, Arg-Pro-Pro (0.5 mM) as the substrate, read-out: Binding affinity (IC50 in nanomolar)

IC50 [1, 3]: 170 nM
SMILES: CCCCC(S)C(=O)N1CCCC1C(=O)N1C(C)CCC1C(=O)NC(C)C(N)=O [Analog 3, N-[(R)-2-mercaptohexanoyl]-Pro-MePro-Ala-NH2]

IC50 [1, 3]: 130 nM
SMILES: CCCCC(S)C(=O)N1CCCC1C(=O)N1CCCC1C(=O)NC(C)C(N)=O [Analog 2, N-[(R)-2-mercaptohexanoyl]-Pro-Pro-Ala-NH2]

IC50 [1, 3]: 87 nM
SMILES: O=C(O)CCNC(=O)[C@@H]1CCCN1C(=O)[C@@H]1CCCN1C(=O)[C@@H](S)C1CCCCC1 [Analog 4, N-[(S)-2-mercapto-2-cyclohexylacetyl]-Pro-Pro-β-Ala-OH]

Further lines, the molecule ahead of its results:

SMILES: CC(NC(=O)C1CCCN1C(=O)C1CCCN1C(=O)CS)C(N)=O (stereo not drawn) [Analog 1, N-mercaptoacetyl-Pro-Pro-Ala-NH2]
IC50 ([1]; rat mAPP, read-out: IC50): 3400 nM

SMILES: CCC(C)C(S)C(=O)N1CCCC1C(=O)N1CCCC1C(=O)NC(C)C(N)=O [Analog 5, N-[(2S, 3S)-2-mercapto-3-methylpentanoyl]-Pro-Pro-Ala-NH2]
IC50 [1, 3]: 10 nM

SMILES: C[C@H](NC(=O)[C@@H]1CCCN1C(=O)[C@@H]1CCCN1C(=O)[C@@H](O)[C@H](N)Cc1ccccc1)C(N)=O [apstatin]
potency (aminopeptidase P): micromolar | blood pressure reduction with an ACE inhibitor (blood pressure): acted synergistically with an ACE inhibitor to reduce blood pressure to normal | reduction of reperfusion-induced ventricular fibrillation (isolated perfused heart): by a similar amount | reduction of cardiac damage (isolated perfused heart; heart attack model): 74% | bradykinin degradation (bradykinin degradation): reduce bradykinin degradation | myocardial infarct size (myocardial infarct size): substantially reduced myocardial infarct size | effect on blood pressure-lowering effects of intravenously administered bradykinin ([2]; rat, in vivo, iv): enhanced | dose at which bradykinin potentiation has been observed ([2]; rats, intravenously, administered over a one hour period): 0.08 to 0.8 mg/kg
